Experimental data as given in patent publication US7838562B2, “Methods of inhibiting vascular permeability and apoptosis” (University of Connecticut, priority 2004, dated 2010).
Read-outs that look alike come from different tables or passages of the source.

Experiments:
phospho-Akt = experiment: Western blot of Akt phosphorylation in HUVEC; type: cell-based, human; settings: for time of maximum Akt phosphorylation levels: data not shown; for Akt phosphorylation with Pertussis toxin: incubation with Pertussis toxin; for increase in Akt phosphorylation levels: 100 nM, after 5 minutes
Description: (§1) Endothelial cell morphogenesis, a phenomenon that requires endothelial cell migration, survival and adherens junction assembly, is mediated by the ligand-dependent activation of S1P1 and S1P3 receptors. […] The effects of FTY720-P and analogs on Akt and ERK phosphorylation in HUVEC were studied in a Western blot analysis. Confluent cultures of HUVEC cells were serum starved for two hours in 0.1% ffa-BSA M199 before treatments. Then, they were washed with ice-cold phosphate buffered saline (PBS) containing 1 mM sodium fluoride and 1 mM sodium orthovanadate and homogenized in radioimmunoprecipitation assay buffer (0.1% sodium dodecyl sulfate (SDS), 0.5% sodium deoxycholate, 1% NP-40, 1 mM sodium orthovanadate, 50 mM β-glycerophosphate and 1× protease inhibitor cocktail). Samples were centrifuged 10,000×g for 10 minutes, and protein concentrations of supernatants were determined by Bradford assay (BioRad Protein Dye Reagent). Equal amounts of protein were separated on a 10% polyacrylamide gel and blotted to a nitrocellulose membrane. Immunoblot analysis was performed using Phospho-Akt, Akt, phospho-ERK1/2 or ERK-1/2 antibodies.

phospho-ERK-1/2 = experiment: Western blot of ERK-1/2 phosphorylation in HUVEC; type: cell-based, human; settings: for time of maximum ERK phosphorylation levels: data not shown; for ERK-1 and ERK-2 phosphorylation with Pertussis toxin: incubation with Pertussis toxin; for increase in ERK-1/2 phosphorylation levels: 100 nM, after 5 minutes
Description: as §1

HUVEC [1] = experiment: apoptosis induced by serum deprivation in HUVEC (DNA fragmentation); type: cell-based, human; settings: for anti-apoptotic effect with Pertussis toxin: Pertussis toxin treatment; for Emax at 0.01 µM: Homo sapiens, HUVEC, 10 nM, 8 hours serum deprivation, read-out: inhibition of DNA fragmentation (maximum effect)
Method: Since ERK-1 and ERK-2 activation is necessary for the survival effect of S1P in endothelial cells, it was tested if FTY720-P and its analog (R)-AFD could prevent apoptosis induced by serum deprivation in HUVEC. In this test, HUVEC cells were labeled with {methyl-^3H}-thymidine (1 μCi/ml) for 16 hours. Then, they were washed and 0.1% ffa-BSA M199 containing the different treatments was added. After 8 hours, fragmented DNA was solubilized and quantified as described.

VE-cadherin = VE-cadherin localization by immunofluorescence in HUVEC; type: cell-based, human; settings: 30 minutes; 10 nM (S1P 100 nM)
Method: The effects of FTY720-P and (R)-AFD on the localization of VE-cadherin were studied using immunofluorescence analysis. In this study, 2×10^5 cells were plated in 35 millimeter glass bottom petri dishes. Three days later, the cells were washed and serum starved for 3 hours before treatments. Then, the cells were washed with ice-cold PBS, fixed, and immunofluorescence analysis with VE-cadherin antibody was conducted (1 μg/ml Santa Cruz). The primary antibody staining was visualized with Rhodamine-conjugated goat anti-mouse (1:1000, Cappel) IgG. Confocal microscopy was conducted on a Zeiss LSM 510 laser-scanning confocal microscope. Rhodamine fluorescence was excited using a 543 nm Helium/Neon laser and emitted fluorescence was detected with a […] long-pass filter.

[2] = system: Mouse embryonic endothelial cells; experiment: VEGF-induced paracellular permeability (Transwell, FITC-dextran); type: cell-based; settings: 100 nM, 1 hr pretreatment, 45 minute time point, VEGF 50 ng/ml
Method: Several studies have shown that VE-cadherin could be an important determinant of vascular permeability. […] A cellular system was used to assess the effects of S1P, FTY720-P and (R)-AFD on vascular permeability. Mouse embryonic endothelial cells (5×10^4) were cultured for 2 days in Transwell polycarbonate filters (6.5 mm diameter, 0.4 μm pores; Costar). Culture medium was replaced with serum/phenol red-free DMEM (HEPES buffer, L-glutamine, and pyridoxine hydrochloride) (0.1 mL upper chamber and 0.6 mL lower chamber). […] FITC-dextran (average MW=2,000 kDa), was added to the upper compartment either in the absence or presence of murine recombinant VEGF (50 ng/ml). Media from lower wells were taken after indicated time periods (5-45 minutes). Samples were placed in black solid bottom 96 well plates (Costar) and fluorescence intensities were measured using CytoFluor(R) fluorescence multi-well plate reader (Applied Biosystems) at 488 nm excitation. Data=mean±SE of duplicates. N=2. *p<0.01 VEGF vs. untreated. #p<0.01 treatments+VEGF vs. VEGF alone.

HUVEC [3] = experiment: HUVEC migration (96 well chemotaxis microchamber); settings: for fold induction at 0.01 µM: read-out: migration, fold induction at maximum effect; for induced migration in presence of Pertussis toxin: Pertussis toxin 200 ng/mL; for induction of endothelial cell migration: compound used directly as chemoattractant, 4 hours
Method: Briefly, polycarbonate filters with a pore size of 8 micrometers (μm) were coated with 5 micrograms per milliliter (μg/ml) fibronectin. […] Approximately 5×10^4 cells suspended in M199 with 0.1% bovine serum albumin were placed in the upper compartment. The cells were allowed to migrate for 4 hours at 37° C. in a humidified chamber with 5% CO2. After the incubation period, the filter was removed, and cells were stained in 0.1% crystal violet and eluted with 10% acetic acid in 96-well plates.
After incubation, conditioned medium was removed, centrifuged at 1,000×g for 10 minutes, and used in the migration assay.

[4] = system: kinase activity present in HUVEC (sphingosine kinase); experiment: in vitro kinase assay with total cell extract from HUVEC; type: biochemical, human; settings: HUVEC kinase activity, 100 μM
Method: To confirm that FTY720 and (R)-AAL are phosphorylated by endothelial cells, an in vitro kinase assay was performed with both total cell extract and conditioned medium from HUVEC. […] Cells were scraped at 4° C. with 400 μl of 25 mM HEPES pH 7.5, […], 1× protease inhibitor mixture, and disrupted by brief sonication. Cellular homogenates were centrifuged for 10 minutes, 4° C. at 20,000×g. In the kinase assay, 300 μl of conditioned medium (derived from 5×10^5 cells for 3 hours of incubation) or 10 μg of total cell extract from HUVEC were used as a source of kinase activity. […] Lipids were extracted and samples were resuspended in 50 μl of chloroform. Lipids were resolved by TLC on Silica Gel G60 using 1-butanol/acetic acid/water (60/20/20 volume/volume) buffer and quantified with a PhosphorImager (Molecular Dynamics).

[5] = system: VEGF-induced vascular permeability; experiment: mouse ear microvascular permeability assay (VEGF-induced); type: in vivo, FVB/N mice; settings: mice, single oral administration (gavage, 50 μg) 5 hours prior
Method: The role of plasma borne FTY720-P or (R)-AFD in the regulation of vascular permeability was tested in vivo. In order to test this possibility, an in vivo vascular permeability model was used in FTY720, (R)-AFD or (S)-AAL-pretreated mice. […] Five hours post-gavage, animals were anesthetized with 2% Avertin™ (0.5 cc/20 g) and infused through the tail vein with 100 μl FITC-dextran (5 mg/ml, 165 kDa). Animals were placed on a warming table under a fluorescent dissecting microscope (Zeiss STV11, Zeiss, Inc.) and the central vessels in the ear were imaged. Control saline or mouse vascular endothelial growth factor (mVEGF, 10 ng/ml) was injected subdermally into the middle ear using a 30 gauge needle (30 μl). Ear vasculature was then imaged with fixed exposure times in a stationary position from 5 minutes to 120 minutes post-injection. Fluorescence images were then quantified using pixel-based threshold in ImageProPlus (Media Cybernetics, Inc.) and quantified.

SK2 = target: T1, SK2 (Mus musculus, UniProt Q9JIA7); settings: SK2-[…]T extract, 100 μM
T1 sequence (Q9JIA7 1-617): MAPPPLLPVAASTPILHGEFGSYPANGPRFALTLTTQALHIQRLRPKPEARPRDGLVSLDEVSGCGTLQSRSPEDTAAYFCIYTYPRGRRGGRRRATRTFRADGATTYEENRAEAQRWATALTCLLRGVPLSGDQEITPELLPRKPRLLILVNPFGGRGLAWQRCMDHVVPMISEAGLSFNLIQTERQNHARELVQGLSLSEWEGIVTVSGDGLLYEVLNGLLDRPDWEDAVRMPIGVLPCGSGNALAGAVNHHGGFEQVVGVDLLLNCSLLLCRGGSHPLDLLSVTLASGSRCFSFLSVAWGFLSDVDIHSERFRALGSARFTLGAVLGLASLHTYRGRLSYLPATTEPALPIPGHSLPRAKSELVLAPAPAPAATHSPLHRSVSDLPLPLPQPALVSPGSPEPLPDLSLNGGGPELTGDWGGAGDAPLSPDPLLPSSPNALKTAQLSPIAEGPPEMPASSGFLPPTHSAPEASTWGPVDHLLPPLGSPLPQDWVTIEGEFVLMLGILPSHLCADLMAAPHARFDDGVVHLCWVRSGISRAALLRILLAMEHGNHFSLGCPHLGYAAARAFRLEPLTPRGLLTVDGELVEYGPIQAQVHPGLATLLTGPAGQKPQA

Row | Structure (SMILES) | time of maximum Akt phosphorylation levels (phospho-Akt) [min] | Akt phosphorylation with Pertussis toxin (phospho-Akt) | time of maximum ERK phosphorylation levels (phospho-ERK-1/2) [min] | ERK-1 and ERK-2 phosphorylation with Pertussis toxin (phospho-ERK-1/2) | anti-apoptotic effect with Pertussis toxin (HUVEC [1]) | VE-cadherin localization at cell-cell contact regions / translocation to adherens junctions (VE-cadherin) | inhibition of VEGF-induced paracellular permeability [2] | increase in Akt phosphorylation levels (phospho-Akt) [fold] | Akt phosphorylation (in words) (phospho-Akt; 5 minute stimulation) | increase in ERK-1/2 phosphorylation levels (phospho-ERK-1/2) [fold] | ERK-1/2 phosphorylation (in words) (phospho-ERK-1/2; 5 minute stimulation) | concentration of maximum anti-apoptotic effect (HUVEC [1]) [nM] | Emax at 0.01 µM (HUVEC [1]) [%] | concentration of maximum effect on migration (HUVEC [3]) [nM] | fold induction at 0.01 µM (HUVEC [3]; Homo sapiens, HUVEC) | induced migration in presence of Pertussis toxin (HUVEC [3]) | induction of endothelial cell migration (HUVEC [3]) | also measured
1 | CCCCCCCCCCCCC/C=C/[C@@H](O)[C@@H](N)COP(=O)(O)O [S1P, Sphingosine-1-phosphate, reference compound] | 5 | blocked by incubation with Pertussis toxin | 5 | blocked by incubation with Pertussis toxin | blocked by Pertussis toxin treatment | comparable to that observed for S1P | profoundly inhibited |  |  |  |  |  |  |  |  |  |  | fold induction at 0.1 µM (HUVEC [3]; Homo sapiens, HUVEC, read-out: migration, fold induction): 14
2 | CCCCCCCOc1ccc(CC[C@@](C)(N)CO)cc1 (stereo in doubt) [AAL, 2-amino-2-methyl-4-[4-heptoxy-phenyl]butane-1-ol] |  |  |  |  |  |  |  |  |  |  |  |  |  |  |  |  |  | Akt phosphorylation (in words) (phospho-Akt): did not induce phospho-Akt or phospho-ERK-1/2 levels; ERK-1/2 phosphorylation (in words) (phospho-ERK-1/2): did not induce phospho-Akt or phospho-ERK-1/2 levels
3 | CCCCCCCCc1ccc(CCC(N)(CO)COP(=O)(O)O)cc1 (stereo not drawn) [FTY720-P] | 5 | blocked by incubation with Pertussis toxin | 5 | blocked by incubation with Pertussis toxin | blocked by Pertussis toxin treatment | increase in VE-cadherin localization at the cell-cell contact regions | profoundly inhibited | 3.7 | higher than the one induced by S1P | 9.3 | higher than the one induced by S1P | 10 | ~70 | 10 | 13 | blocked by Pertussis toxin | potent chemoattractants for HUVEC | 
4 | CCCCCCCOc1ccc(CC[C@](C)(N)CO)cc1 [(S)-AAL, 2-amino-2-methyl-4-[4-heptoxy-phenyl]butane-1-ol] |  |  |  |  |  |  |  |  |  |  |  |  |  |  |  |  |  | phosphorylation of the substrate [4]: undetectable; inhibition of vascular permeability induced by VEGF [5]: but not (S)-AAL also potently inhibited vascular permeability in vivo; phosphorylation of the substrate (SK2): barely detectable; migration induced by conditioned medium (HUVEC [3]; compound incubated with HUVEC for 3 hours, conditioned medium used as chemoattractant): did not induce migration after incubation with endothelial cells
5 | CCCCCCCOc1ccc(CC[C@@](C)(N)COP(=O)(O)O)cc1 [(R)-AFD] | 5 | blocked by incubation with Pertussis toxin | 5 | blocked by incubation with Pertussis toxin | blocked by Pertussis toxin treatment | increase in VE-cadherin localization at the cell-cell contact regions | profoundly inhibited | 4.5 | higher than the one induced by S1P | 8.2 | higher than the one induced by S1P | 10 | ~70 | 10 | 9 | blocked by Pertussis toxin | potent chemoattractants for HUVEC | 
